As usually defined, the maximal fold induction is the ratio of treated to control signal. A word on the melting point: it is the temperature, or range, at which the solid turns liquid.

Each structure is given as a SMILES string.

A short description of series [1]: Therapeutical effect on olive oil-induced triglyceride hyperlipidemia models. The series is classed as in vivo. The following applies: once a day for one week, SD rats, 2 h after olive oil. As for the experimental part: Test of Therapeutical Effect on Olive Oil-Induced Triglyceride Hyperlipidemia Models
To conduct this test, 6-week-old SD rats (purchased from Charles River Japan) were used.
According to the body weight of the test rats when they were 5 weeks old, the test rats were divided into test groups and a control group with 6 rats per group.
A predetermined amount of each compound prepared in the Examples was measured and placed in an agate mortar. While 5% aqueous gum arabic solution was gradually introduced to the mortar, the compound was uniformly ground and suspended. Test samples were prepared by further adding 5% aqueous gum arabic solution gradually. Subsequently, these test samples were subjected to ultrasonic washing for 10 minutes to homogenize. Test samples were prepared as and when necessary.
The rats of the test groups were orally administered with the compounds of the invention such that rats received the compounds in an amount of 10, 30, or 100 mg/kg. The compounds of the invention were formulated as 5% gum arabic suspensions as described above.
The rats of the control group were orally administered with 5% aqueous gum arabic solution (not containing the compounds of the invention) in an amount of 5 ml/kg body weight. Administration was conducted once a day continuously for one week at a specific time of day after the rats reached 6 weeks of age. This test was performed under non-fasting conditions (rats had free access to feed and water), and the rats were fasted after the final administration of the compounds or 5% aqueous gum arabic solution.
Two hours after the final administration, olive oil was orally administered to the rats from both groups in an amount of 3 ml/kg body weight.
Two hours after the olive oil administration, blood was collected from the abdominal aorta of the rats of the respective groups using a heparinized syringe. The plasma was centrifugally separated from the blood at a temperature of 4° C., and the triglyceride level of the plasma was measured. A Hitachi 7170 automatic analyzer was used as the measuring instrument. Using the values measured from the test groups and control group, the decrease (%) in plasma triglyceride level was calculated according to the following equation: Decrease (%) in plasma triglyceride concentration=(1−E/C)×100 wherein E represents the average plasma triglyceride level in each test group; and C represents the average plasma triglyceride level in the control group.

Series [2] in a line: Anti-obesity test using Zucker fatty rats. The series is classed as in vivo. The following applies: 100 mg/kg oral, once a day over 4 weeks, relative to control group. The text has this: Anti-Obesity Test Using Zucker Fatty Rats
Zucker fatty rats are obese rats discovered by Zucker et al., in 1961 as mutants among 13 M rats, which are a hybrid between 13C and M rats. These rats (fa/fa) start to appear distinctly obese from normal broods around the age of 3 weeks. As they age, the weight difference between the fatty rats and normal rats increases. Zucker fatty rats are currently kept by a variety of organizations as simple obesity models, and are readily obtainable.
This test was performed using this rat model to evaluate the anti-obesity action of the compounds of the invention. The preparation method of test samples and the test procedures are described below:
The test samples were prepared in the same manner as in Test Example 2.
Zucker fatty rats and lean rats (both from Charles River Japan) were purchased at the age of 5 weeks. They were divided into groups (10 rats per group) according to body weight when they reached 6 weeks old. After acclimatization, the administration of test samples was initiated when the rats reached 8 weeks old. Test samples were orally administered using an oral gavage so that the compounds of the invention contained in the test samples were given in an amount of 100 mg/kg body weight (test sample dosage: 5 ml/kg body weight). The test samples were administered once a day over 4 weeks at a specific time of day.
As a control, a group of rats were administered with the same amount of 5% aqueous gum arabic solution (5 ml/kg body weight) instead of the test samples.
The rats of all groups were weighed on the last day of administration. The average body weight of the rats of each test group was compared with the average body weight (standard weight) of the rats of the control group to obtain the weight variations (differences). The weight differences were expressed as percentages in relation to the standard weight. The values thus calculated are referred to as “weight change %”. When a weight difference is negative relative to the standard weight, weight change % is shown with “−” (minus).
During the test period, the rats of the respective groups had free access to rat feed (“CRF-1”, manufactured by Oriental Yeast, Co., Ltd.) and water (tap water).

For the next series, the system named is human LPL mRNA. The series can be described thus: Test for increase in LPL mRNA expression (luciferase assay, HTB-92/p387/p383 cell line). The series is classed as cell-based. The following applies: 120 h, HTB-92/p387/p383 cells, 5 days; for maximal fold induction: Max. Ind. Value=Lt/Lc, maximum luciferase activity over control; for EC50: concentration that increases LPL mRNA expression over the control by 50%. The text has this:
Pharmacological Test 1 Test for Increase in LPL mRNA Expression
A luciferase assay was employed to simply and quickly detect an increase in human LPL mRNA. The principle of the assay is as follows:
Luciferase emits light when reacted with luciferine (substrate). The expression of LPL mRNA is controlled by 5′-UTR and 3′-UTR (promoter regions) of the LPL gene. By introducing the promoter regions of the LPL gene into a commercially available plasmid (for example, that produced by Clonetics Corp.) to produce a plasmid (reporter plasmid) that stably expresses luciferase in human cells, such a plasmid expresses luciferase only under conditions in which LPL mRNA can increase. Therefore, when the substrate is introduced to the expression system and the amount of luciferase expression (luciferase activity) is quantified as the extent of chemiluminescence, the amount of LPL mRNA expression can be estimated.
The test herein was performed as follows: Using a plasmid for the luciferase assay manufactured by Clontech, wherein human LPL 5′-UTR (Enerback, S., et al., Mol. Cell. Biol. 12 (10) (1992): 4622-4633) and 3′-UTR (Wion, K. L., et al., Science 235 (1987): 4796, 1638-1641) had been inserted, human-derived liposarcoma cell line SW872 (ATCC Accession No. HTB-92) was transformed to prepare an HTB-92/p387/p383 cell line, which stably expresses luciferase.
This HTB-92/p387/p383 cell line was introduced into a 225 cm^2 culture flask furnished with a culture medium and cultured at 37° C. in the absence of CO2 until reaching confluence. Leibovitz's L-15 culture medium (containing 10% FBS, 1% GlutaMaxII, 10 μg/ml streptomycin, 1 μg/ml puromycin, 250 μg/ml hygromycin B) was used as the culture medium. After reaching confluence, the cells were collected, plated on 384-well plates to have 20000 cells/well, and cultured with 50 μl/well of the culture medium under the same conditions as above (37° C., absence of CO2). After 3 days of culturing, the culture medium was replaced by 50 μl/well phenol-red-free DMEM (containing 10% FBS, 1% GlutaMax, 10 U/ml penicillin, 10 μg/ml streptomycin, 1 μg/ml puromycin, 250 μg/ml hygromycin, 1 μM dexamethasone, 0.5 μM IBMX; differentiation medium), and the cells were cultured for 5 more days at 37° C. in the presence of CO2 to differentiate.
Furthermore, the culture medium was replaced by a 50 μl/well medium containing a compound of the invention (compound prepared in an Example) as a test substance wherein the compound had been conditioned with DMSO to a specific concentration selected from 10^−4 M to 3×10^−10M. The cells were cultured for 5 days at 37° C. in the presence of CO2.
After 5 days of culturing, a luciferase substrate solution (manufactured by Promega Corporation) was introduced to each well in an amount of 30 μl/well. The cells were left to stand 10 minutes at room temperature, and luciferase activities were measured by a luminometer (a microplate scintilltion counter; The Wallac MicroBeta Trilux, manufactured by Perkin Elmer, Inc.).
Cells that had been cultured and differentiated in a differentiation medium prepared by adding 0.1% DMSO to the above-mentioned DMEM medium (differentiation medium) not containing phenol red were used as a control (i.e., cultured and differentiated for 5 days and then stimulated for 5 days). The luciferase activity of these control cells were measured as above. The EC50 value (the concentration of test substance that can increase the amount of LPL mRNA expression over the control by 50%, unit: M) was calculated based on the straight line obtained by plotting the results of the tests performed using the test substances at varying concentrations. The maximum induction (Max. Ind. values) was calculated according to the following equation: Max. Ind. Value=Lt/Lc wherein Lt represents the maximum luciferase activity occurred in response to test substance stimulation; and Lc represents the value indicating the luciferase activity of the control.

In another series the test system is LPL. Kind of series: Test for LPL activity-increasing effect in normal rats (skeletal muscle LPL activity). The series is classed as in vivo. The following applies: every day for 1 week, SD rats, soleus muscle, 4 h after administration. As for the experimental part: Test for LPL Activity-Increasing Effect in Normal Rats
6-week-old SD rats (purchased from Charles River Japan) were used as subjects. The rats were divided into groups according to body weight at the age of 5 weeks. The rats in each test group were orally administered with a 5% gum arabic suspension in an amount of 5 ml/kg of body weight, the suspension containing the test compound of the invention in such an amount that the dose of the compound of the invention became 30 mg/kg of body weight in one group and 100 mg/kg of body weight in another group. The rats in a control group were orally administered with a 5% gum arabic suspension (not containing the test compound of the invention) in an amount of 5 ml/kg of body weight. Each sample suspension was orally administered every day at a specific time of day for 1 week starting when the rats reached the age of 6 weeks.
Four hours after the administration of the sample suspension, skeletal muscle tissues of the rats were collected, then freeze-clamped and stored under liquid nitrogen. LPL activity in the skeletal muscle tissues was measured by the following method.
The soleus muscle was homogenized in a chilled solution of 0.05 mol/L NH4OH—NH4Cl buffer (pH 8.5) containing 0.5 U/mL heparin at 1 mL/100 mg of tissue wet weight. After standing on ice for 60 min with vigorous mixing at intervals of 15 min, the homogenate was centrifuged at 3000 rpm and 4° C. for 10 min and the supernatant was separated.
The substrate solution was prepared by mixing 2 μCi of glycerol tri[1-^14C]oleate, 0.133 g of unlabeled triolein, 0.9 mL of 1% Triton X-100, and 0.9 mL of 4% bovine serum albumin. in 0.2 mol/L Tris-HCl buffer (pH 8.6) and 10.2 mL of 0.2 mol/L Tris-HCl buffer (pH 8.6). The mixture was emulsified by sonication on ice for 3 min.
In a glass test tube, 0.1 mL of the tissue extract, 0.05 mL of heat-inactivated rat serum and 0.15 mL of 4% bovine serum albumin in 0.2 mol/L Tris-HCl buffer (pH 7.4) were mixed. Enzyme reaction was started by adding 0.2 mL of the substrate solution and was carried out for 30 min. at 37° C.
The reaction was stopped by addition of 2 mL of 1.5 mol/L H2SO4/2-propanol (1:40, v/v), and 1 mL of distilled water and 3 mL of hexane were added into the test tube. After vigorously shaking for 10 min. at room temperature, the test tube was centrifuged for 10 min. at 3000 rpm.
The upper layer (3.5 mL) was collected in a new test tube and mixed with 1 mL of 0.1 mol/L KOH.
The test tube was vigorously shaken for 10 min. at room temperature and then centrifuged for 10 min. at 3000 rpm.
After removing the upper layer, 1 mL of the lower layer (water phase) was transferred into a vial for counting, neutralized with 50 μL of 1.3 mol/L HCl and mixed with 4 mL of scintillator. The radioactivity was measured using a liquid scintillation counter.
The LPL activity increase (%) was calculated from the measured values of LPL activity in the control group and test groups according to the following formula: LPL activity increase (%)=(Test group average value)/(Control group average value)×100−100

`COc1cc(-c2cn3ccccc3n2)ccc1OCc1ccccc1` [Example 1, 2-(4-benzyloxy-3-methoxyphenyl)imidazo[1,2-a]pyridine] registered a melting point of 128 to 129.5 °C. Also, the “Decrease in plasma triglyceride level (%)” value (shortened to “Decrease … (%)”) in series [1] (10 mg/kg oral) is reported as 26%. Besides, the “Decrease … (%)” value in series [1] (30 mg/kg oral) was 50%. The “Decrease … (%)” value in series [1] (100 mg/kg oral) came to 76%. Besides, the “Weight Change (%)” value in series [2] was −8%. In the series with human LPL mRNA, this molecule yielded a maximal fold induction of 3 and an EC50 of 6.3 µM.
For the molecule `COc1cc(-c2c[nH]c(-c3ccc(C(F)(F)F)cc3)n2)ccc1OCc1ccccc1.Cl` [Example 95, 4-(4-benzyloxy-3-methoxyphenyl)-2-(4-trifluoromethylphenyl)imidazole], the melting point lay within 247 to 249 °C. In addition, the “Increase of skeletal muscle LPL activity compared to control (%)” value (from here on “Increase … (%)”) with LPL (30 mg/kg oral) stood at 13%. In addition, the “Increase … (%)” value with LPL (100 mg/kg oral) is on record as 25%. Besides, the “Decrease … (%)” value in series [1] (10 mg/kg oral) is reported as 28%. Moreover, in series [1] (30 mg/kg oral), the “Decrease … (%)” value was found to be 65%. Also, the “Decrease … (%)” value in series [1] (100 mg/kg oral) was found to be 81%. In addition, the “Weight Change (%)” value in series [2] is −15%.
`COc1cc(-c2cn3ccccc3n2)ccc1OCc1ccc(C#N)cc1` [Example 30] displayed a melting point of 175 to 177 °C. Moreover, in the series on LPL (30 mg/kg oral), the “Increase … (%)” value was 22%. For the same molecule, the “Increase … (%)” value in the series on LPL (100 mg/kg oral) worked out at 31%. In the series on human LPL mRNA, this molecule gave a maximal fold induction of 1.9 and an EC50 of 6.7 µM.
`COc1cc(-c2cn3cccc(OCc4ccccc4)c3n2)ccc1OCc1ccc(Br)cc1` [Example 85] showed a melting point of 168 to 169 °C. Also, in the series with LPL (30 mg/kg oral), the “Increase … (%)” value is reported as 9%. In addition, the “Increase … (%)” value with LPL (100 mg/kg oral) is listed as 36%.
`COc1cc(-c2cn3ccsc3n2)ccc1OCc1ccc(Cl)cc1` [Example 23, 6-[4-(4-chlorobenzyloxy)-3-methoxyphenyl]imidazo[2,1-b]thiazole] showed a melting point of 126 to 128 °C. In addition, in the series with LPL (30 mg/kg oral), the “Increase … (%)” value is recorded as 18%. Also, in the series on LPL (100 mg/kg oral), the “Increase … (%)” value is reported as 15%. The “Decrease … (%)” value in series [1] (10 mg/kg oral) was found to be 66%. Besides, the “Decrease … (%)” value in series [1] (30 mg/kg oral) amounted to 78%. In addition, in series [1] (100 mg/kg oral), the “Decrease … (%)” value amounted to 77%.

The record behind these values is patent publication US8895599B2, “Lipoprotein lipase-activating compositions comprising benzene derivates” (Otsuka Pharmaceutical Factory, Inc., priority 2008, dated 2014).
